In PMC4552448 (Journal of medicinal chemistry, 2015):

Columns and labels:
Format in all cases: cell-based
HeLa cells = assay: NKG2D and DNAM-1 ligand surface expression, IF and flow cytometry; conditions: data not shown
[1] = tested on: RD rhabdomyosarcoma cells; assay: Growth inhibition, MTT, RD; conditions: Rhabdomyosarcoma cell, 48 h, read-out: IC50 ± SD RD
[2] = tested on: HepG2 hepatocellular carcinoma cells; assay: Growth inhibition, MTT, HepG2; conditions: Homo sapiens, HepG2, 48 h, read-out: IC50 ± SD HepG2
[3] = tested on: OVCAR-8 ovarian carcinoma cells; assay: Growth inhibition of OVCAR-8 cells; conditions: Homo sapiens, OVCAR-8, 96 h, read-out: IC50 ± SD OVCAR-8

| Structure (SMILES) | induction of the NKG2D and DNAM-1 ligands (HeLa cells) | IC50 [1] [nM] | IC50 [2] [nM] | IC50 [3] [nM] |
| --- | --- | --- | --- | --- |
| COc1cc(C(=O)c2ccn(-c3cccc(N)c3)c2)cc(OC)c1OC [(1-(3-aminophenyl)-1H-pyrrol-3-yl)(3,4,5-trimethoxyphenyl)-methanone] | unable to induce |  |  |  |
| CC(=O)O[C@H]1C(=O)[C@@]2(C)[C@H]([C@H](OC(=O)c3ccccc3)[C@]3(O)C[C@H](OC(=O)[C@H](O)[C@@H](NC(=O)c4ccccc4)c4ccccc4)C(C)=C1C3(C)C)[C@]1(OC(C)=O)CO[C@@H]1C[C@@H]2O [PTX, Paclitaxel] |  | > 10000 |  |  |
| CC[C@]1(O)C[C@@H]2CN(CCc3c([nH]c4ccccc34)[C@@](C(=O)OC)(c3cc4c(cc3OC)N(C)[C@H]3[C@@](O)(C(=O)OC)[C@H](OC(C)=O)[C@]5(CC)C=CCN6CC[C@]43[C@@H]65)C2)C1 [VBL, vinblastine] |  | 53 ± 2.5 | 81 ± 2.4 | 15 ± 7 |
